PubChem BioAssay AID1117350 (Cheminformatics & Chemogenomics Research Group (CCRG), …, 2015)
Where “and” joins values, the source holds several entries; their conditions need not be identical. Equal entries are not always repeated. Calls of active or inactive are those of the source. How the calls were made is not given here.

Test system: HeLa, chromatin condensation phenotype imaging
Test: condensed chromatin phenotype in HeLa cells – imaging, IC50, dose response (AID 1117350)

Row | SMILES | IC50
1 | CN(C)/N=N/c1nc[nH]c1C(N)=O | > 10 µM (inactive)
2 | CC[C@@]1(O)C(=O)OCc2c1cc1n(c2=O)Cc2c-1nc1ccccc1c2/C=N/OC(C)(C)C | > 10 µM (inactive)
3 | CCCCCCCCCCCCCCCCNc1ccc(C(=O)O)cc1 | > 10 µM (inactive)
4 | CCCCCCCCCCCCCCCCCCNC(=O)OC1CCN(C(=O)OC[C@H](COC(=O)N(Cc2cccc[n+]2CC)C(=O)c2ccccc2OC)OC)CC1 | > 10 µM (inactive)
5 | CCCCC1C(=O)N(c2ccccc2)N(c2ccc(O)cc2)C1=O (centres undefined) | > 10 µM (inactive)
6 | Nc1nc(=S)c2[nH]cnc2[nH]1 | > 10 µM (inactive)
7 | CN1CCC(Nc2ncc3ncnc(Nc4ccc(F)c(Cl)c4)c3n2)CC1 | > 10 µM (inactive)
8 | CCN(CC)CCNC(=O)c1c(C)[nH]c(/C=C2\C(=O)Nc3ccc(F)cc32)c1C | 3.81 µM
9 | CSc1ccc2c(c1)C(N1CCN(C)CC1)Cc1ccccc1S2 (centres undefined) | > 10 µM (inactive)
10 | CN(C)CCOC(c1ccccc1)c1ccc(Br)cc1 (centres undefined) | > 10 µM (inactive)
11 | OC[C@H]1O[C@@H](n2cnc3c(=S)nc[nH]c32)[C@H](O)[C@@H]1O | > 10 µM (inactive)
12 | O=[N+]([O-])c1ccc(Oc2ccc(N=C=S)cc2)cc1 | > 10 µM (inactive)
13 | CCN(CCCCOC(=O)c1ccc(OC)c(OC)c1)C(C)Cc1ccc(OC)cc1 (centres undefined) | > 10 µM (inactive)
14 | O=C(c1cc(O)c(O)c(O)c1)c1ccc(O)c(O)c1O | > 10 µM (inactive)
15 | CC(C)n1c(/C=C/[C@@H](O)C[C@@H](O)CC(=O)O)c(-c2ccc(F)cc2)c2ccccc21 | > 10 µM (inactive)
16 | COc1c(C)c2c(c(O)c1C/C=C(\C)CCC(=O)OCCN1CCOCC1)C(=O)OC2 | > 10 µM (inactive)
17 | CN(Cc1cnc2nc(N)nc(N)c2n1)c1ccc(C(=O)N[C@@H](CCC(=O)O)C(=O)O)cc1 | > 10 µM (inactive)
18 | Cc1c(C)c2c(c(C)c1O)CCC(C)(COc1ccc(CC3SC(=O)NC3=O)cc1)O2 (centres undefined) | > 10 µM (inactive)
19 | CCCCCCCCCCCCCCCC[N+](C)(C)CCN(Cc1ccc(OC)cc1)c1ncccn1 | > 10 µM (inactive)
20 | O=C1c2c(O)cccc2Cc2cccc(O)c21 | > 10 µM (inactive)
21 | CC[C@@]1(O)C(=O)OCc2c1cc1n(c2=O)Cc2cc3c(CN(C)C)c(O)ccc3nc2-1 | > 10 µM (inactive)
22 | CCC(COC(=O)c1cc(OC)c(OC)c(OC)c1)(c1ccccc1)N(C)C (centres undefined) | > 10 µM (inactive)
23 | CCCNCC(O)COc1ccccc1C(=O)CCc1ccccc1 (centres undefined) | > 10 µM (inactive)

Row | SMILES | IC50
24 | O=C(CCl)c1ccc(Cl)cc1Cl | 0.541 µM
25 | Cn1cnc([N+](=O)[O-])c1Sc1ncnc2nc[nH]c12 | > 10 µM (inactive)
26 | Cc1cc(N)c2ccccc2[n+]1CCCCCCCCCC[n+]1c(C)cc(N)c2ccccc21 | > 10 µM (inactive)
27 | COc1ccc2cc3[n+](cc2c1OC)CCc1cc2c(cc1-3)OCO2 | > 10 µM (inactive)
28 | Nc1ccc2cc3ccc(N)cc3nc2c1 | 2.47 µM
29 | COCCOC(=O)C1=C(C)NC(C)=C(C(=O)OC/C=C/c2ccccc2)C1c1cccc([N+](=O)[O-])c1 (centres undefined) | > 10 µM (inactive)
30 | COc1ccc(-c2ccc3cc(C(=O)O)ccc3c2)cc1C12CC3CC(CC(C3)C1)C2 | > 10 µM (inactive)
31 | CCC(=O)c1ccc(O)cc1 | > 10 µM (inactive)
32 | CC[C@]1(O)C[C@H]2CN(CCc3c([nH]c4ccccc34)[C@@](C(=O)OC)(c3cc4c(cc3OC)N(C=O)[C@H]3[C@@](O)(C(=O)OC)[C@H](OC(C)=O)[C@]5(CC)C=CCN6CC[C@]43[C@@H]65)C2)C1 | 0.0061 µM
33 | CC[C@H](C)C(=O)O[C@H]1C[C@@H](C)C=C2C=C[C@H](C)[C@H](CC[C@@H]3C[C@@H](O)CC(=O)O3)[C@H]21 | > 10 µM (inactive)
34 | COc1ccc(Cc2nccc3cc(OC)c(OC)cc23)cc1OC | > 10 µM (inactive)
35 | O=C(O)c1ccc(-n2nc(-c3ccccc3O)nc2-c2ccccc2O)cc1 | > 10 µM (inactive)
36 | O=c1[nH]c(=O)n([C@H]2C[C@H](O)[C@@H](CO)O2)cc1Br | > 10 µM (inactive)
37 | CCC(C)(C)C(=O)O[C@H]1C[C@@H](C)C=C2C=C[C@H](C)[C@H](CC[C@@H]3C[C@@H](O)CC(=O)O3)[C@H]21 | > 10 µM (inactive)
38 | COc1ccc2cc1Oc1ccc(cc1)C[C@H]1c3c(cc4c(c3Oc3cc5c(cc3OC)CCN(C)[C@@H]5C2)OCO4)CCN1C | > 10 µM (inactive)
39 | CCCCOC(=O)c1ccc(N)cc1 | > 10 µM (inactive)
40 | CCCCc1ccc2nc(NC(=O)OC)[nH]c2c1 | 0.00717 µM
41 | CCCCCCC[N+](CC)(CC)CCCCc1ccc(Cl)cc1 | > 10 µM (inactive)
42 | O=C(O)CCCc1ccc(N(CCCl)CCCl)cc1 | > 10 µM (inactive)
43 | COc1cc(NCc2ccc3nc(N)nc(N)c3c2C)cc(OC)c1OC | > 10 µM (inactive)
44 | CCCCCCCCCCCCCCCC[n+]1ccccc1 | 0.515 µM
45 | Nc1nc(F)nc2c1ncn2[C@@H]1O[C@H](CO)[C@@H](O)[C@@H]1O | > 10 µM (inactive)
46 | CC(C)=CCOc1ccc(/C=C/C(=O)c2ccc(OCC=C(C)C)cc2OCC(=O)O)cc1 | > 10 µM (inactive)

Row | SMILES | IC50
47 | CC[C@@H]([C@H](C)O)n1ncn(-c2ccc(N3CCN(c4ccc(OC[C@@H]5CO[C@@](Cn6cncn6)(c6ccc(F)cc6F)C5)cc4)CC3)cc2)c1=O | > 10 µM (inactive)
48 | NCCNc1ccc(NCCN)c2c1C(=O)c1ccncc1C2=O | > 10 µM (inactive)
49 | C[C@@]12C(=O)OC(=O)[C@]1(C)C1CCC2O1 | 8.5 µM (inactive)
50 | COc1cccc2c1C(=O)c1c(O)c3c(c(O)c1C2=O)C[C@@](O)(C(=O)CO)CC3OC1CC(N2CCOC(OC)C2)C(O)C(C)O1 (some centres undefined) | 0.0118 µM
51 | CCN(CC)CCCC(C)Nc1c2ccc(Cl)cc2nc2ccc(OC)cc12 (centres undefined) | 8.58 µM (inactive)
52 | Cc1ccccc1C(=O)Nc1ccc(C(=O)N2CCCC(N(C)C)c3ccccc32)cc1 (centres undefined) | 3.41 µM
53 | CCc1oc2ccccc2c1C(=O)c1cc(I)c(O)c(I)c1 | > 10 µM (inactive)
54 | Cc1ccc2nc(N)[nH]c(=O)c2c1Sc1ccncc1 | > 10 µM (inactive)
55 | NCCCC[C@H](N[C@@H](CCc1ccccc1)C(=O)O)C(=O)N1CCC[C@H]1C(=O)O | > 10 µM (inactive)
56 | Cc1ccc(Nc2nccc(N(C)c3ccc4c(C)n(C)nc4c3)n2)cc1S(N)(=O)=O | > 10 µM (inactive)
57 | CC(C)(C)C(=O)OCOP(=O)(COCCn1cnc2c(N)ncnc21)OCOC(=O)C(C)(C)C | > 10 µM (inactive)
58 | CC(C)=CCNc1ncnc2c1ncn2[C@@H]1O[C@H](CO)[C@@H](O)[C@H]1O | > 10 µM (inactive)
59 | CC(=O)Oc1ccccc1C(=O)Nc1ncc([N+](=O)[O-])s1 | > 10 µM (inactive)
60 | CC[C@]1(O)C[C@@H]2CN(CCc3c([nH]c4ccccc34)[C@@](C(=O)OC)(c3cc4c(cc3OC)N(C)[C@H]3[C@@](O)(C(=O)OC)[C@H](OC(C)=O)[C@]5(CC)C=CCN6CC[C@]43[C@@H]65)C2)C1 | 0.00452 µM and 0.0032 µM
61 | CC(C)(C)C1CCC(CC2=C(O)c3ccccc3C(=O)C2=O)CC1 (centres undefined) | > 10 µM (inactive)
62 | COc1cc([C@@H]2c3cc4c(cc3[C@H](O)[C@H]3COC(=O)[C@H]23)OCO4)cc(OC)c1OC | 0.0112 µM
63 | O=c1c(-c2ccccc2)c1-c1ccccc1 | > 10 µM (inactive)
64 | O=C(O)CN(CCN(CC(=O)O)CC(=O)O)CCN(CC(=O)O)CC(=O)O | > 10 µM (inactive)
65 | C=C(C)[C@H]1Cc2c(ccc3c2O[C@@H]2COc4cc(OC)c(OC)cc4[C@@H]2C3=O)O1 | 0.223 µM
66 | CCc1oc2ccccc2c1C(=O)c1cc(Br)c(O)c(Br)c1 | > 10 µM (inactive)
67 | S=c1nc[nH]c2nc[nH]c12 | > 10 µM (inactive)
68 | O=C1C(=O)c2ccccc2C(O)=C1C1CCC(c2ccc(Cl)cc2)CC1 (centres undefined) | > 10 µM (inactive)
69 | COC(=O)Nc1nc2ccc(S(=O)c3ccccc3)cc2[nH]1 (centres undefined) | 0.241 µM

Row | SMILES | IC50
70 | CN1CCCC(CC2c3ccccc3Sc3ccccc32)C1 (centres undefined) | > 10 µM (inactive)
71 | Cc1ccc2c(c1)c1c3n2CCNC3CCC1 (centres undefined) | > 10 µM (inactive)
72 | Clc1ccc(Nc2nnc(Cc3ccncc3)c3ccccc23)cc1 | > 10 µM (inactive)
73 | Oc1ccc([C@H]2CNCc3c2ccc(O)c3O)cc1O | > 10 µM (inactive)
74 | Cc1nc(Nc2ncc(C(=O)Nc3c(C)cccc3Cl)s2)cc(N2CCN(CCO)CC2)n1 | > 10 µM (inactive)
75 | CN(C)CCC=C1c2ccccc2CCc2ccccc21 | > 10 µM (inactive)
76 | NC(=NCCCCCCN=C(N)/N=C(\N)Nc1ccc(Cl)cc1)/N=C(\N)Nc1ccc(Cl)cc1 | > 10 µM (inactive)
77 | CCCSc1ccc2nc(NC(=O)OC)[nH]c2c1 | 0.0615 µM
78 | Cc1nc2ccc(CN(C)c3ccc(C(=O)N[C@@H](CCC(=O)O)C(=O)O)s3)cc2c(=O)[nH]1 | > 10 µM (inactive)
79 | CCCCC(CC)CN=C(N)NC(N)=NCCCCCCN=C(N)NC(N)=NCC(CC)CCCC (centres undefined) | > 10 µM (inactive)
80 | CO[C@@H]1[C@@H](OC)[C@H](C)[C@@](O)(CC(=O)O)O[C@H]1[C@H](C)[C@H]1O[C@@]2(CC[C@@](C)([C@H]3CC[C@@](C)([C@@H]4O[C@@H]([C@H]5O[C@](C)(O)[C@H](C)C[C@@H]5C)C[C@@H]4OC4C[C@H](OC)[C@@H](OC)[C@H](C)O4)O3)O2)C[C@H](O)[C@H]1C (some centres undefined) | > 10 µM (inactive)
81 | Cc1cc(O)c2ccccc2c1O | > 10 µM (inactive)
82 | COC(=O)Nc1nc2ccc(C(=O)C3CC3)cc2[nH]1 | 0.402 µM
83 | C[C@@H]1C[C@H]2[C@@H]3CCC4=CC(=O)C=C[C@]4(C)[C@@]3(Cl)[C@@H](O)C[C@]2(C)[C@@]1(OC(=O)c1ccco1)C(=O)CCl | > 10 µM (inactive)
84 | Cc1cc(C2CCCCC2)n(O)c(=O)c1 | > 10 µM (inactive)
85 | Cc1cc2c(C(C)C)c(O)c(O)c(C=O)c2c(O)c1-c1c(C)cc2c(C(C)C)c(O)c(O)c(C=O)c2c1O | > 10 µM (inactive)
86 | COc1cccc2c1C(=O)c1c(O)c3c(c(O)c1C2=O)C[C@@](O)(C(=O)CO)C[C@@H]3O[C@H]1C[C@H](N)[C@H](O[C@@H]2CCCCO2)[C@H](C)O1 | > 10 µM (inactive)
87 | Cc1cc(CC(C)CC(C)(C)C)n(O)c(=O)c1 (centres undefined) | > 10 µM (inactive)
88 | O=C1c2c(O)ccc(O)c2C(=O)c2c(NCCNCCO)ccc(NCCNCCO)c21 | > 10 µM (inactive)
89 | CC(C)=CCC/C(C)=C/CC/C(C)=C/C(=O)OCC(=O)[C@@]1(O)CC[C@H]2[C@@H]3CCC4=CC(=O)C=C[C@]4(C)[C@H]3[C@@H](O)C[C@@]21C | > 10 µM (inactive)
